From ChEMBL document CHEMBL5291721, “A preclinical secondary pharmacology resource illuminates target-adverse drug reaction associations of marketed drugs” (Nat Commun, 2023)

Tests used:
[1] = molecular target: T1, Muscarinic acetylcholine receptor M5 (Homo sapiens, UniProt P08912)
T1 sequence (P08912 whole entry): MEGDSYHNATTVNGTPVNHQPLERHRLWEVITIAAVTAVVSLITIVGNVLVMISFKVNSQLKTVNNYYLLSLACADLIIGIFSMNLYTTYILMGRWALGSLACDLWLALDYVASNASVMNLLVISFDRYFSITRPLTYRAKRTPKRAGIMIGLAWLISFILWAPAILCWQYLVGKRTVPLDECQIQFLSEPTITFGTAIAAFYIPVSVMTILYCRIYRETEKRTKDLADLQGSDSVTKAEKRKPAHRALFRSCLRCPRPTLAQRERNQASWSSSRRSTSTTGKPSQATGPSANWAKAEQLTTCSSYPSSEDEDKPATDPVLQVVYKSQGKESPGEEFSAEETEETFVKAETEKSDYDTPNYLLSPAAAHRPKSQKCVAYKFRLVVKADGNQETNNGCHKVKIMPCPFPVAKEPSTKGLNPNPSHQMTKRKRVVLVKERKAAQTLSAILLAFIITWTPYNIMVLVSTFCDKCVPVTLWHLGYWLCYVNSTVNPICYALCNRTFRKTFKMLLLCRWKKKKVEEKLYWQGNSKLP

Cannabinoid receptor 1 = Cannabinoid receptor 1 (Homo sapiens, UniProt P21554); assay type: functional
D(1B) dopamine receptor = D(1B) dopamine receptor (Homo sapiens, UniProt P21918)
[2] = molecular target: 5-hydroxytryptamine receptor 6 (Homo sapiens, UniProt P50406)
[3] = molecular target: 5-hydroxytryptamine receptor 7 (Homo sapiens, UniProt P34969)
Thromboxane A2 receptor [4] = molecular target: T2, Thromboxane A2 receptor (Homo sapiens, UniProt P21731); assay type: functional
T2 sequence (P21731 whole entry): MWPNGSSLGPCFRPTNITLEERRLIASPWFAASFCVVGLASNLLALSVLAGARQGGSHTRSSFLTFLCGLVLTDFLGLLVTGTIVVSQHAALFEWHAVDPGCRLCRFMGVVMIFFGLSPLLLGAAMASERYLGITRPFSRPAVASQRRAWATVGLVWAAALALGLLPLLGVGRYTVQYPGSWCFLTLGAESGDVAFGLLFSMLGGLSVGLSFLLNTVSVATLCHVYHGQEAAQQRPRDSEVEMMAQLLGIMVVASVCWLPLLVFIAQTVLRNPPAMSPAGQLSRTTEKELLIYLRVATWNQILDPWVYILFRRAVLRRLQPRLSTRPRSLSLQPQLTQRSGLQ

Acetylcholinesterase = Acetylcholinesterase (Homo sapiens, UniProt P22303); assay type: functional
Thromboxane A2 receptor [5] = molecular target: T2, Thromboxane A2 receptor; assay type: functional, cell-based
Androgen receptor [6] = molecular target: T3, Androgen receptor (Rattus norvegicus, UniProt P15207)
T3 sequence (P15207 whole entry): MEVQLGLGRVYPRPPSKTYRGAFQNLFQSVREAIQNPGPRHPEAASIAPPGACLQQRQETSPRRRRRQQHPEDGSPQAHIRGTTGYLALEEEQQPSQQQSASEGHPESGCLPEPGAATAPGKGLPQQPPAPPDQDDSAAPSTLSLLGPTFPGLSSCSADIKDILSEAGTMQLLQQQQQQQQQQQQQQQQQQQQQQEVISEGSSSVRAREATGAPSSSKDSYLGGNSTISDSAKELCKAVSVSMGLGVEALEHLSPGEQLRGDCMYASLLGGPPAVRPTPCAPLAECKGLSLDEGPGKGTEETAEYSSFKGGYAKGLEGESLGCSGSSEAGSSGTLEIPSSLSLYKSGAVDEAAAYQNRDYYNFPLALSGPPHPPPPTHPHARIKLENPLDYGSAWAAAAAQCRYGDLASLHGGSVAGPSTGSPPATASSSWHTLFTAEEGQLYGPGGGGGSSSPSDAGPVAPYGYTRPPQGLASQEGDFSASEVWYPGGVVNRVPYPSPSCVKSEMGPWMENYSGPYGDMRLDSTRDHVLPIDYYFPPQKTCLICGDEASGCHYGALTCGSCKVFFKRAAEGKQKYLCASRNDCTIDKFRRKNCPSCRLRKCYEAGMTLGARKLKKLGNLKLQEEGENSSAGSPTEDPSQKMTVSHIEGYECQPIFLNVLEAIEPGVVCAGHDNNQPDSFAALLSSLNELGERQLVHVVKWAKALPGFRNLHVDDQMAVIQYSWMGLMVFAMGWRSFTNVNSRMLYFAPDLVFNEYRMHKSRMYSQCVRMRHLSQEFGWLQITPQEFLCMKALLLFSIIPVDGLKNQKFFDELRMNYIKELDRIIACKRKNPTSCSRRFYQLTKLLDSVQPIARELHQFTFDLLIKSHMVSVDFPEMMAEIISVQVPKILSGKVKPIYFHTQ

[7] = molecular target: Gamma-aminobutyric acid type B receptor subunit 1 (Homo sapiens, UniProt Q9UBS5)
[8] = molecular target: Hydroxycarboxylic acid receptor 2 (Homo sapiens, UniProt Q8TDS4)
[9] = molecular target: Synaptic vesicular amine transporter (Rattus norvegicus, UniProt Q01827); assay type: functional
[10] = molecular target: Sodium channel protein type 5 subunit alpha (Homo sapiens, UniProt Q14524); assay type: functional, cell-based
Androgen receptor [11] = molecular target: T3, Androgen receptor; assay type: functional
[12] = molecular target: Voltage-dependent L-type calcium channel subunit alpha-1C (Homo sapiens, UniProt Q13936); assay type: functional, cell-based
Note: assay procedure not described here.

Sodium channel protein type 5 subunit alpha, sequence (Q14524 whole entry): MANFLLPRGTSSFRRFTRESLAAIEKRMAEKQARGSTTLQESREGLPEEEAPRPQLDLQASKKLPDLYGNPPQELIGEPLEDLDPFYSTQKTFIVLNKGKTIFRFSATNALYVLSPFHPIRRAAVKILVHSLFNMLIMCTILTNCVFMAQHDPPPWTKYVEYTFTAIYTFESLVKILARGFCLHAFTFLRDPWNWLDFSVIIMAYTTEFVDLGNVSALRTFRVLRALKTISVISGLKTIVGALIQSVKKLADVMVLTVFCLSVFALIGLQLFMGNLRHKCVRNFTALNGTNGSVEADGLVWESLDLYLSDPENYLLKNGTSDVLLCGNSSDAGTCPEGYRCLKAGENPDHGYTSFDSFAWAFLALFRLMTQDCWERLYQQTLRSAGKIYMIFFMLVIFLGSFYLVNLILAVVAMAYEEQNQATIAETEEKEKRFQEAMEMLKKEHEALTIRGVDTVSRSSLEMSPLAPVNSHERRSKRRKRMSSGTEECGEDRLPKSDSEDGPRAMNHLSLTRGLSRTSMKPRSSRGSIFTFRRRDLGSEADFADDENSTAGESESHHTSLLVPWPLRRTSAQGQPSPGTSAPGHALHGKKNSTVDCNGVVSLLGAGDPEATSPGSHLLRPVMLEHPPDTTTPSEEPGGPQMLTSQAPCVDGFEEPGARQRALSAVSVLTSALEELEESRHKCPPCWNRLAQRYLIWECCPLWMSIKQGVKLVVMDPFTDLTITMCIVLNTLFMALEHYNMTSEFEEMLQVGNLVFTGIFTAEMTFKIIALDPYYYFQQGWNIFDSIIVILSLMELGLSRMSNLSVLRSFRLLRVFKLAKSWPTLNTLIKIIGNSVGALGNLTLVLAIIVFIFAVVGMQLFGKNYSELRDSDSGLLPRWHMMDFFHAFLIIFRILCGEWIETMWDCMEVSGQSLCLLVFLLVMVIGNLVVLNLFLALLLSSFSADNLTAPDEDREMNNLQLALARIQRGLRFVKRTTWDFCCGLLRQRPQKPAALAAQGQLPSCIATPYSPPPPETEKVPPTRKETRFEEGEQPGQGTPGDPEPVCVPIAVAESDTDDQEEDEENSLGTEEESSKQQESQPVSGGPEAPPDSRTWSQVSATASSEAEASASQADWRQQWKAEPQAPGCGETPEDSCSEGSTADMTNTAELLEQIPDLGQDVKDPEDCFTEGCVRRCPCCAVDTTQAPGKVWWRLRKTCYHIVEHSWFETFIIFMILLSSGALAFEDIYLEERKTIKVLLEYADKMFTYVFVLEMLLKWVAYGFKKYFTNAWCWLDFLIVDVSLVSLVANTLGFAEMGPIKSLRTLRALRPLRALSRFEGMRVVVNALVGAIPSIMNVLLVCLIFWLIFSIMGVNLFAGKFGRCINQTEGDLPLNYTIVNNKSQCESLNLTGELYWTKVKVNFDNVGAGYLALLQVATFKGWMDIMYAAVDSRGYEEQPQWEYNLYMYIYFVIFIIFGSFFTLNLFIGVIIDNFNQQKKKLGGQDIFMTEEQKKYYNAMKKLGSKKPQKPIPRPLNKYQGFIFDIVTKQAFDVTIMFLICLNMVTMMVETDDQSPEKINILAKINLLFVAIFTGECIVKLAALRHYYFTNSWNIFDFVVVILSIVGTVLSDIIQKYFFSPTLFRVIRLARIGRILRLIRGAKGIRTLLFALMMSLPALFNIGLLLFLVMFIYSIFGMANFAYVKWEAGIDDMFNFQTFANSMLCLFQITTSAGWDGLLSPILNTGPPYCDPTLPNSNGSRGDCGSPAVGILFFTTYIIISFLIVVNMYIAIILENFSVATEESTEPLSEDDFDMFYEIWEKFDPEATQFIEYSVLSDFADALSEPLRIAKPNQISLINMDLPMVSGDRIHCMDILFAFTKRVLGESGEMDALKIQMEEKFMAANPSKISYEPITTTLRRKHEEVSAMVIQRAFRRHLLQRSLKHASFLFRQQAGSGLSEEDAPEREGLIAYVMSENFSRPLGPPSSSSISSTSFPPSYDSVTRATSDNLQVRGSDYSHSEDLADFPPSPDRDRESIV
Voltage-dependent L-type calcium channel subunit alpha-1C, sequence (Q13936 whole entry): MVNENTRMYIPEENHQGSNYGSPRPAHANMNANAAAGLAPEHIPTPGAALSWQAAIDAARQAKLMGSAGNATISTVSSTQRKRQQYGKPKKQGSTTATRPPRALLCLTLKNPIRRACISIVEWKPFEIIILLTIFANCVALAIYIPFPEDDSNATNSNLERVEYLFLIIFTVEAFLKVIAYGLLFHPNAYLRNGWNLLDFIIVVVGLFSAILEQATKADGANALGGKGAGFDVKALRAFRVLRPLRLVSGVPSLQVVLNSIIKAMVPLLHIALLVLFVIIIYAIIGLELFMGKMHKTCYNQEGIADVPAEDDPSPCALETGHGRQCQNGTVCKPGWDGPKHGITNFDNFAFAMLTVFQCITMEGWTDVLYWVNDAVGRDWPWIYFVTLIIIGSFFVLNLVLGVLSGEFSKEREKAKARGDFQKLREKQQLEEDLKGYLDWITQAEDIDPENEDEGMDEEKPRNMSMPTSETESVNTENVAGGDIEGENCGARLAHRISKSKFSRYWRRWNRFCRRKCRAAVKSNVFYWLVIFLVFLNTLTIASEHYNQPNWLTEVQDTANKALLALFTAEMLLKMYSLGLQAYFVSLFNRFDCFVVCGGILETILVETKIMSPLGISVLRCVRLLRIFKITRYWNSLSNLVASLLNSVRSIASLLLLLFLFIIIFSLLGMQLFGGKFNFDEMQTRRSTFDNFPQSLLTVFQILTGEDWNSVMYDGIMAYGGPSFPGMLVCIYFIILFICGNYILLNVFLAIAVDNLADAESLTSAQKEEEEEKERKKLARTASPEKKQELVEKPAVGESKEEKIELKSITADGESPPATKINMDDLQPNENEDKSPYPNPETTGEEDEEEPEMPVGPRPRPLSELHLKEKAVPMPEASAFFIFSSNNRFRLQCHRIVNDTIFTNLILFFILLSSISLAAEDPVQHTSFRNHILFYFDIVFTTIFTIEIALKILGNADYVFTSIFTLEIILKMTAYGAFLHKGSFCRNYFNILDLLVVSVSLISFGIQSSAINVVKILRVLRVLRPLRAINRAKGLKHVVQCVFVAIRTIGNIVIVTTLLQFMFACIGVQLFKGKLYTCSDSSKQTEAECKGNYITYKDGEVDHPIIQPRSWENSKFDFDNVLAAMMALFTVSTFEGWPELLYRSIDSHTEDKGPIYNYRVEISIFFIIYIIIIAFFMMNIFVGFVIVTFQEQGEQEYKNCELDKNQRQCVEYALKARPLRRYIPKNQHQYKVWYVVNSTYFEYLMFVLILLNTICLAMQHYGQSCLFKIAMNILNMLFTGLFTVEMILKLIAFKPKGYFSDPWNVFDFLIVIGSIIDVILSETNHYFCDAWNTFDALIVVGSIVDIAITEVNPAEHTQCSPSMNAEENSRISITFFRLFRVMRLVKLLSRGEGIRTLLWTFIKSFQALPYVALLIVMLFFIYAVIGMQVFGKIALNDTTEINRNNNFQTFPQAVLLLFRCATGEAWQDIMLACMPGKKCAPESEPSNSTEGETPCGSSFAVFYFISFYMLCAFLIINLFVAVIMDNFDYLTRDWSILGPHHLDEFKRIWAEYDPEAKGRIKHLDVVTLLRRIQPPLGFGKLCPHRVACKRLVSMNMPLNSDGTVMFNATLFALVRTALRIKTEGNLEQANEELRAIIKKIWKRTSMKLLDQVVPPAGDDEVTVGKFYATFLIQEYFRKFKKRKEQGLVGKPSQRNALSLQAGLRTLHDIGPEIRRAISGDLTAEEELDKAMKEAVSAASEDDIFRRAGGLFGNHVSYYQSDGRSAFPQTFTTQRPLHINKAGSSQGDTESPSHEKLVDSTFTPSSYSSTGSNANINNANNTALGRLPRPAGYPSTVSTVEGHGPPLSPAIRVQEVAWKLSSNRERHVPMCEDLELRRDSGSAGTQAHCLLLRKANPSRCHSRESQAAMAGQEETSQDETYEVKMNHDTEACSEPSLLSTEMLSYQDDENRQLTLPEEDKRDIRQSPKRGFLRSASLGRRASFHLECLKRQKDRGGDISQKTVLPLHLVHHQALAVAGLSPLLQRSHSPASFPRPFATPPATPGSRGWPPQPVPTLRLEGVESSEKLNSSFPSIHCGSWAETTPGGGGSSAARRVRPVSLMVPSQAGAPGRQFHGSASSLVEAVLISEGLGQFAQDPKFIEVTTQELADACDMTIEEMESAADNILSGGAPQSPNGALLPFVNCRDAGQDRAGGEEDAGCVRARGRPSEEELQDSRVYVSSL
Synaptic vesicular amine transporter, sequence (Q01827 whole entry): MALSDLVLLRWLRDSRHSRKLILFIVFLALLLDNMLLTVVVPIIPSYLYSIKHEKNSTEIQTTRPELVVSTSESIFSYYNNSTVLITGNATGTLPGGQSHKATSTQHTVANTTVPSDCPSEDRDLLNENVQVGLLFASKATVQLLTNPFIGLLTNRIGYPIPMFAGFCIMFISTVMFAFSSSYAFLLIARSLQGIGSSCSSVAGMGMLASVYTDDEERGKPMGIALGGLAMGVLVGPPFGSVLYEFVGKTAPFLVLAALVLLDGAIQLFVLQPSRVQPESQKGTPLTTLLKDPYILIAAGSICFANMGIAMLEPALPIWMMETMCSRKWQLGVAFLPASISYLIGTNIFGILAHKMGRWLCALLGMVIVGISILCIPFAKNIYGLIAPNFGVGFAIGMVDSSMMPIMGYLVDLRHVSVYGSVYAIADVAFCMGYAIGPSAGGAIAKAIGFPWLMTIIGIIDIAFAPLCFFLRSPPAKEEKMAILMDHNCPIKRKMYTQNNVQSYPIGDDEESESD
Hydroxycarboxylic acid receptor 2, sequence (Q8TDS4 whole entry): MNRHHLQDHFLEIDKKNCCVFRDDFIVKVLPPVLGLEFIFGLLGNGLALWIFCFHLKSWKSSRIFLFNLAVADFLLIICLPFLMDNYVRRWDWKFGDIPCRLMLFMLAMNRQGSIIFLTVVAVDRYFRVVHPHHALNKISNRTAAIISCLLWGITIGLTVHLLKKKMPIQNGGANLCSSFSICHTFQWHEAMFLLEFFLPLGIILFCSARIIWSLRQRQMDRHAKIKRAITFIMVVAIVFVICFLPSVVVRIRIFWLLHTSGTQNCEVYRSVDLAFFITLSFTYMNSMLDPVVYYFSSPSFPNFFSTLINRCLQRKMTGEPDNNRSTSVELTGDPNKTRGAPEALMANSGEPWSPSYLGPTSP

NCC(CC(=O)O)c1ccc(Cl)cc1 (stereo unspecified) [BACLOFEN]
AC50 [1]: > 10 µM | AC50 (Cannabinoid receptor 1): > 10 µM | AC50 (D(1B) dopamine receptor): > 10 µM | AC50 [2]: > 10 µM | AC50 [3]: > 10 µM | AC50 (Thromboxane A2 receptor [4]): > 30 µM | AC50 (Acetylcholinesterase): > 30 µM | AC50 (Thromboxane A2 receptor [5]): > 30 µM

Cc1ccc(-c2cc(C(F)(F)F)nn2-c2ccc(S(N)(=O)=O)cc2)cc1 [CELECOXIB]
AC50 (Androgen receptor [6]): > 30 µM | AC50 [1]: > 10 µM | AC50 (Cannabinoid receptor 1): > 10 µM | AC50 (D(1B) dopamine receptor): > 10 µM | AC50 [7]: > 10 µM | AC50 [8]: > 10 µM | AC50 [2]: > 10 µM | AC50 [3]: > 10 µM

CN(C)CC(c1ccc(O)cc1)C1(O)CCCCC1 (stereo unspecified) [DESVENLAFAXINE]
AC50 [9]: > 30 µM

O=C(O)c1cc(O)ccc1O [GENTISIC ACID]
AC50 [9]: > 30 µM

O=C(CCNNC(=O)c1ccncc1)NCc1ccccc1 [NIALAMIDE]
AC50 [10]: > 50 µM | AC50 [9]: > 30 µM

CC[C@H]1[C@@H](O)[C@@H]2[C@H](CC[C@]3(C)[C@@H]([C@H](C)CCC(=O)O)CC[C@@H]23)[C@@]2(C)CC[C@@H](O)C[C@@H]12 [OBETICHOLIC ACID]
AC50 (Androgen receptor [11]): > 30 µM | AC50 [12]: > 30 µM | AC50 [10]: > 30 µM | AC50 [9]: > 30 µM

CO[C@H]1C[C@@H]2CC[C@@H](C)[C@@](O)(O2)C(=O)C(=O)N2CCCC[C@H]2C(=O)O[C@H]([C@H](C)C[C@@H]2CC[C@@H](O)[C@H](OC)C2)CC(=O)[C@H](C)/C=C(\C)[C@@H](O)[C@@H](OC)C(=O)[C@H](C)C[C@H](C)/C=C/C=C/C=C/1C [SIROLIMUS]
AC50 (Androgen receptor [6]): 11.9 µM | AC50 [12]: > 50 µM | AC50 [7]: > 10 µM | AC50 [9]: 23 µM

CCCCCCOc1nsnc1C1=CCCN(C)C1 [XANOMELINE]
AC50 [12]: 10 µM | AC50 [10]: 19 µM | AC50 [9]: 1.8 µM
